Each structure is given as a SMILES string. Where “and” joins values, the source holds several entries; their conditions need not be identical. Equal values may be shown once.

Data set [1] in a line: Inhibition of morphine (3-O-glucuronidation) glucuronidation by human UGT enzymes from liver microsomes. The arrangement: species or system Microsome. In general terms: Liver microsomes are a subcellular fraction often used to study metabolism.
Data set [2] can be described thus: Inhibition of morphine (6-O-glucuronidation) glucuronidation by human UGT enzymes from liver microsomes. More on the design: species or system Microsome.
Data set [3] is described as follows: Inhibition of AZT glucuronidation by human UGT enzymes from liver microsomes. More on the design: species or system Microsome.
A short description of data set [4]: Inhibition of mycophenolic acid (0.5 mM) glucuronidation by human kidney microsomes. More on the design: species or system Microsome.
The nature of data set [5]: Inhibition of mycophenolic acid (1 mM) glucuronidation by human UGT enzymes from liver microsomes. The arrangement: species or system Microsome.
Data set [6] concerns the target T1, UDP-glucuronosyltransferase 1A4 (Homo sapiens, UniProt P22310).
T1 sequence (P22310 whole entry): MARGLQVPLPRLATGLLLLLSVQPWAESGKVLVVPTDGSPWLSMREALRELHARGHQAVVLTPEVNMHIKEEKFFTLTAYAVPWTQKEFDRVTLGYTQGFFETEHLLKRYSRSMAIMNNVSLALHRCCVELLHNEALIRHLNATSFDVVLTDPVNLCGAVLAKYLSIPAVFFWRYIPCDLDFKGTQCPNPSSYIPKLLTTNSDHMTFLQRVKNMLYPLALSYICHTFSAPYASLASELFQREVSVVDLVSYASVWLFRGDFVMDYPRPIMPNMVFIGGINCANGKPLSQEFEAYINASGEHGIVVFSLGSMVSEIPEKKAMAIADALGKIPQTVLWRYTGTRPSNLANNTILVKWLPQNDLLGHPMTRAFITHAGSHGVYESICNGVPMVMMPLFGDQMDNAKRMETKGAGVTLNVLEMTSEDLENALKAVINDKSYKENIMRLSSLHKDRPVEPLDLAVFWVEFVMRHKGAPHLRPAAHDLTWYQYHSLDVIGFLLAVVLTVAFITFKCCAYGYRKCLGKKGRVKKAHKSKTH
The data set can be described thus: Drug glucuronidation reaction catalyzed by human recombinant UGT1A4.

The nature of data set [7]: Inhibition of morphine glucuronidation by human UGT enzymes from liver microsomes. The arrangement: species or system Microsome.
Data set [8] is described as follows: Inhibition of codeine glucuronidation by human UGT enzymes from liver microsomes. The arrangement: species or system Microsome.
Data set [9] is described as follows: Inhibition of ciramadol glucuronidation by human UGT enzymes from liver microsomes. More on the design: species or system Microsome.
In data set [10] the target is T2, UDP-glucuronosyltransferase 2B7 (Homo sapiens, UniProt P16662).
T2 sequence (P16662 whole entry): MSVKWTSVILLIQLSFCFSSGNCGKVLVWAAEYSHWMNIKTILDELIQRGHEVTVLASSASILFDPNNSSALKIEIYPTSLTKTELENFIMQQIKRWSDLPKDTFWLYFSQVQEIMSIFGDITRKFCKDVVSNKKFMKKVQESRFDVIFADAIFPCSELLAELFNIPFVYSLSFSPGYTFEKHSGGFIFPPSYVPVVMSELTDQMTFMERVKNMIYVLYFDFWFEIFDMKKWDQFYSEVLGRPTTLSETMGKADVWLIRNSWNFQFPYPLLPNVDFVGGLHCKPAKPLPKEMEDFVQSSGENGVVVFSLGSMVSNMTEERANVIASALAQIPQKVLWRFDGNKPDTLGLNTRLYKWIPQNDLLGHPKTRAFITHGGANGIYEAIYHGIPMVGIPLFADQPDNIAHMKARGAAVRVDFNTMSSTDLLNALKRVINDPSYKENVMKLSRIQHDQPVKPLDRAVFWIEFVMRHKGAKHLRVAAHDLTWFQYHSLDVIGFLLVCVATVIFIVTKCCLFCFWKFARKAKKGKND
The data set can be described thus: (§1) Drug glucuronidation reaction catalyzed by human recombinant UGT2B7.

For a further data set, the target named is T3, UGT2B7 (Homo sapiens, UniProt P16662).
T3 sequence (P16662 whole entry): T2 sequence (P16662 whole entry)
Described as §1. As to conditions: recombinant UGT2B7.

Data set [11] has as its target T4, UDP-glucuronosyltransferase 1A3 (Homo sapiens, UniProt P35503).
T4 sequence (P35503 whole entry): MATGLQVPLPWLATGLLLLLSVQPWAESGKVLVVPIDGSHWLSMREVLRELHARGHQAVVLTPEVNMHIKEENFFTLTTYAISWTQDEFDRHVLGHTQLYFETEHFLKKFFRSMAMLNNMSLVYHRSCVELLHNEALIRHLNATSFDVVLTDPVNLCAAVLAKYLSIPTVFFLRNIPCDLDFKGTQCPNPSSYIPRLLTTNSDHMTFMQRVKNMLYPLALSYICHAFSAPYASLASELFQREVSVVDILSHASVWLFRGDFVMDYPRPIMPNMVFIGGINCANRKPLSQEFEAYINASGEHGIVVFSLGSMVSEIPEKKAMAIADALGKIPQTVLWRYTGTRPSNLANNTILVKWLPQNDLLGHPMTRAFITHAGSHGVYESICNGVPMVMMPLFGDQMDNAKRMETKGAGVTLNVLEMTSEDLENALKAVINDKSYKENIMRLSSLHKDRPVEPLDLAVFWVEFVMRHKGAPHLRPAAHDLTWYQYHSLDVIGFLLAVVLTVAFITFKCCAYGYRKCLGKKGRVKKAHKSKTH
The data set can be described thus: Drug glucuronidation reaction catalyzed by human recombinant UGT1A3.

A word on the Ki: it is a dissociation constant, usually derived from enzyme kinetics or from competition with a known ligand. `CN(C)CCCN1c2ccccc2CCc2ccc(Cl)cc21` [CLOMIPRAMINE]: the Ki turned out to be 90 µM in [1] and 56 µM in data set [2].

As to `Cc1cc(CC(=O)O)n(C)c1C(=O)c1ccc(Cl)cc1` [ZOMEPIRAC], the affinity in [3], expressed as Ki, was 2100 µM.

What is called IC50 is the concentration at which inhibition is half-maximal. On to `O=C(O)c1cccnc1Nc1cccc(C(F)(F)F)c1` [NIFLUMIC ACID], for which the IC50 in data set [4] and in [5] was 8 µM throughout.

`COc1ccc2c(c1)c(CC(=O)O)c(C)n2C(=O)c1ccc(Cl)cc1` [INDOMETHACIN] gave a Ki in data set [3] of 200 µM.

As for `COc1ccc2cc([C@H](C)C(=O)O)ccc2c1` [NAPROXEN], the Ki in data set [3] is 172 µM and 1100 µM.

In data set [3], `Cc1noc(NS(=O)(=O)c2ccc(N)cc2)c1C` [SULFISOXAZOLE] returned a Ki of 47000 µM.

With `CN/C(=N\CCSCc1nc[nH]c1C)NC#N` [CIMETIDINE], the Ki in data set [3] was determined as 11000 µM.

As usually defined, the Km is the concentration of substrate that gives half-maximal velocity. For `CCOC(=O)Nc1ccc(NCc2ccc(F)cc2)cc1N` [EZOGABINE], the Km in data set [6] turned out to be 322 µM.

In turn, `C=CCN1CC[C@]23c4c5ccc(O)c4O[C@H]2C(=O)CC[C@@]3(O)[C@H]1C5` [NALOXONE] registered a Ki in [7] of 630 µM.

As to `Nc1ccc(S(=O)(=O)Nc2nccs2)cc1` [SULFATHIAZOLE], the affinity in data set [3], expressed as Ki, was 24000 µM.

On to `CN(C)CCCN1c2ccccc2CCc2ccccc21` [IMIPRAMINE], for which, in data set [6], the Km was determined as 310 µM and the Vmax turned out to be 180 pmol/min/mg protein.

Regarding `CCCCC1C(=O)N(c2ccccc2)N(c2ccccc2)C1=O` [PHENYLBUTAZONE], the Ki in [8] turned out to be 1700 µM; in [3], 1400 µM.

Compound `CN1C(=O)CN=C(c2ccccc2F)c2cc([N+](=O)[O-])ccc21` [FLUNITRAZEPAM] displayed a Ki in data set [3] of 190 µM.

For `O=C1Nc2ccc(Cl)cc2C(c2ccccc2Cl)=NC1O` (stereo unspecified) [LORAZEPAM], the Ki stood at 160 µM in [3], 140 µM in data set [9] and 160 µM in data set [7].

Consider `Cc1cccc(Nc2ccccc2C(=O)O)c1C` [MEFENAMIC ACID], for which the IC50 in data set [4] is 49 µM; in [5] it was 63 µM.

For the compound `O=C(O)c1ccccc1Nc1cccc(C(F)(F)F)c1` [FLUFENAMIC ACID], the figures for the IC50 in [4] and in [5] were 13 µM and 19 µM, respectively.

As for `Cc1cn([C@H]2C[C@H](N=[N+]=[N-])[C@@H](CO)O2)c(=O)[nH]c1=O` [ZIDOVUDINE], the Vmax in data set [10] is listed as 210 pmol/min/mg protein. The Michaelis-Menten constant (Km) at UGT2B7 amounted to 770 µM.

As for `CN(C)CCC=C1c2ccccc2CCc2ccccc21` [AMITRIPTYLINE], the values for the Ki in data set [1], in data set [8] and in data set [2] were 160 µM, 130 µM and 80 µM, respectively.

Take `Nc1ccc(S(=O)(=O)c2ccc(N)cc2)cc1` [DAPSONE]: the Ki in data set [3] amounted to 1700 µM.

For `CNCCC=C1c2ccccc2CCc2ccccc21` [NORTRIPTYLINE], the figures for the Ki in data set [1] and in data set [2] were 33 µM and 27 µM, respectively.

With `CN1C(=O)CN=C(c2ccccc2)c2cc(Cl)ccc21` [DIAZEPAM], the inhibitory constant (Ki) in [8] was determined as 180 µM; in [3], 300 µM; in data set [9], 40 µM; in [7], 120 µM.

With `O=C(N[C@H](CO)[C@H](O)c1ccc([N+](=O)[O-])cc1)C(Cl)Cl` [CHLORAMPHENICOL], the results for the Ki in data set [8], in data set [3] and in [7] were 270 µM, 250 µM and 980 µM, respectively.

In data set [3], `C[C@]12CC[C@H]3[C@@H](CCC4=CC(=O)CC[C@@]43C)[C@@H]1CC[C@@H]2O` [TESTOSTERONE] registered a Ki of 250 µM.

Take `O=C(O)c1cc(-c2ccc(F)cc2F)ccc1O` [DIFLUNISAL]: the IC50 was 122 µM in [4] and 109 µM in [5].

For the compound `CN1CCC(=C2c3ccccc3CC(=O)c3sccc32)CC1` [KETOTIFEN], the Vmax in data set [11] is 6 pmol/min/mg protein and 12 pmol/min/mg protein; in data set [6], 130 pmol/min/mg protein and 140 pmol/min/mg protein.

Consider `C#C[C@]1(O)CC[C@H]2[C@@H]3CCc4cc(O)ccc4[C@H]3CC[C@@]21C` [ETHINYL ESTRADIOL], for which the Ki in data set [3] is 38 µM and 150 µM.

Turning to `O=C1C(CC[S+]([O-])c2ccccc2)C(=O)N(c2ccccc2)N1c1ccccc1` (stereo unspecified) [SULFINPYRAZONE], the Ki in data set [3] came to 2100 µM.

The record behind these values is ChEMBL document CHEMBL1908105, “UDP-glucuronosyltransferases and clinical drug-drug interactions” (Pharmacol Ther, 2005).
